{
  "source": "patent US20050064521A1",
  "about": "“In vitro assay for evaluation of angiogenic effects” (TUNGHAI UNIVERSITY, priority 2003, published 2005)",
  "key": {"[1]": {"system": "endothelial cells", "test": "Tube formation of endothelial cells in three-dimensional collagen fiber gel model, inverted microscopy", "format": "cell-based, Sprague-Dawley (SD) rats", "conditions": "cultured for 48 hours", "description": "(§1) Three-dimensional collagen fiber gel: The dry collagen fiber was extract from tails of Sprague-Dawley (SD) rats. The fiber was dissolved in 1 N acetic acid solution in the concentration of 1 g fiber/100 mL acetic acid. The dissolving was performed at 4° C. for 48 hours and followed by dialysis three times with 0.25 N acetic acid solution for 24 hours.\n(§2) Endothelial cells: SD rats weighting 100 to 200 g were anaesthetized with 0.1 mL/100 g body weight of barbiturate (Nembutal™, Abbott® Laboratories, USA) intraperitoneally. The thoracic aortas were cut and the connective tissues were removed. The vessels were further split into vessel rings thickening about 2 mm, and then cultured the rings in fresh Dulbecco's modified Eagle medium (DMEM) with 10% fetal bovine serum. The culture was maintained at 37° C. with 5% CO2 with changing the medium every two days. After cultured for 5 to 6 days, the cells were harvested. The endothelial cells suitable for the method according to the invention were the second to tenth passage cells.\nModel: The endothelial cells (3×10^6) were mixed in the three-dimensional collagen fiber gel and cultured in DMEM containing 5% fetal bovine serum and 10 ng/mL VEGF and 3.08 ng/mL TPA at 37° C. After culturing the endothelial cells for 0, 6, 12, 24, 48, and 72 hours, the morphologies of the cell and gel were both observed with an inverted microscope. […]"}, "[2]": {"system": "endothelial cells", "test": "Collapse of the three-dimensional collagen fiber gel, trypan blue absorbance measurement", "format": "cell-based, Sprague-Dawley (SD) rats", "description": "as §1\nas §2, with “cells. […]” for “cells.”\nAfter culturing for 48 hours, the medium was removed and 0.075% trypan blue was added for staining the gels for 30 minutes. The upper solution was then removed and the absorbance of the solution was determined with a spectroscope. […]\nIt was evidenced that the degree of collapse of the three-dimensional collagen fiber gel is decreased with the addition of EGCg. That results support that the effect of a compound on angiogenesis can be determined by comparing the degrees of collapse of the collagen fiber gels of the models. For instance, the compound is determined to have a stimulatory effect on angiogenesis in case the collapse of the collagen fiber gel of the model added with the compound is increased in comparison with that added without the compound; in contrast, the compound is determined to have an inhibitory effect on angiogenesis in case the collapse of the collagen fiber gel of the model added with the compound is decreased in comparison with that added without the compound."}},
  "data": [
    {"smiles": "O=C(O[C@@H]1Cc2c(O)cc(O)cc2O[C@@H]1c1cc(O)c(O)c(O)c1)c1cc(O)c(O)c(O)c1", "note": "[EGCg, epigallocatechin gallate]", "values": [
      {"measurement": "tubes and cell count versus control without EGCg", "setting": "[1]; 25 μM EGCg", "value": "less tubes and lower cell count"},
      {"measurement": "tubes", "setting": "[1]; 100 μM EGCg", "value": "almost no tubes"},
      {"measurement": "inhibitory effect on angiogenesis (absorbance measurement)", "setting": "[2]; 25 μM EGCg", "value": "a little inhibitory effect on angiogenesis"},
      {"measurement": "collapse of the gel (absorbance measurement)", "setting": "[2]; 50 μM EGCg", "value": "nearly totally inhibited"},
      {"measurement": "collapse of the gel (absorbance measurement)", "setting": "[2]; 100 μM EGCg", "value": "nearly no collapse was observed"}
    ]}
  ]
}
